Our source for the IC50 and inhibition values is US9139577B2, “Sulfoximine substituted quinazolines for pharmaceutical compositions” (Boehringer Ingelheim International GmbH, priority 2013, dated 2015).

SMILES strings stand for the structures.

One assay deals with MNK2a (Homo sapiens (Human), UniProt Q9HBH9). In words: MNK2a in vitro kinase assay (Assay 2), ADP-Glo. It is filed as biochemical. The following applies: read-out: MNK2 IC50.
The target of another assay is MNK1 (Homo sapiens (Human), UniProt Q9BUB5). Kind of assay: MNK1 in vitro kinase assay (Assay 3), Z'-LYTE. It is filed as biochemical. To be noted: for inhibition at 1 µM: compound concentration of 1 μM, read-out: MNK1 % INH. The text has this:
C. MNK1 In vitro Kinase Assay (Assay 3)
MNK1 Data can be obtained from the MNK1 Z′-LYTE® assay. The MNK1 Z′-LYTE® screening protocol and assay conditions are also described on www.invitrogen.com.
The assay is described as follows:
The Z′-LYTE® biochemical assay employs a fluorescence-based, coupled-enzyme format and is based on the differential sensitivity of phosphorylated and non-phosphorylated peptides to proteolytic cleavage. The peptide substrate is labeled with two fluorophores—one at each end—that make up a FRET pair.
In the primary reaction, the kinase transfers the gamma-phosphate of ATP to a single tyrosine, serine or threonine residue in a synthetic FRET-peptide. In the secondary reaction, a site-specific protease recognizes and cleaves non-phosphorylated FRET-peptides. Phosphorylation of FRET-peptides suppresses cleavage by the Development Reagent. Cleavage disrupts FRET between the donor (i.e., coumarin) and acceptor (i.e., fluorescein) fluorophores on the FRET-peptide, whereas uncleaved, phosphorylated FRET-peptides maintain FRET. A ratiometric method, which calculates the ratio (the Emission Ratio) of donor emission to acceptor emission after excitation of the donor fluorophore at 400 nm, is used to quantitate reaction progress, as shown in the equation below.
ASSAY SETUP: The inhibition of kinase activity of MNK1a was assessed using pre-activated GST-MNK1a. The 2×MKNK1 (MNK1) mixture is prepared in 50 mM HEPES pH 7.5, 0.01% BRIJ-35, 10 mM MgCl2, 4 mM MnCl2, 1 mM EGTA, 2 mM DTT.
The Test Compounds are screened in 1% DMSO (final) in the well.
All Peptide/Kinase Mixtures are diluted to a 2× working concentration in the MNK1 Kinase Buffer.
All ATP Solutions are diluted to a 4× working concentration in Kinase Buffer (50 mM HEPES pH 7.5, 0.01% BRIJ-35, 10 mM MgCl2, 1 mM EGTA).
Development Reagent Solution:
The Development Reagent is diluted in Development Buffer
1. 2.5 μL—4× Test Compound
2. 5 μL—2× Peptide/Kinase Mixture
5. 60-minute Kinase Reaction incubation at room temperature
6. 5 μl—Development Reagent Solution
8. 60-minute Development Reaction incubation at room temperature
9. Read on fluorescence plate reader and analyze the data
The following equations are used for each set of data points: […]
Correction for Background Fluorescence: FlSample-FlTCFl Ctl
% Phosphorylation (% Phos): 1−((Emission Ratio×F100%)−C100%)/((C0%−C100%)+[Emission Ratio×(F100%−F0%)])*100%
% Inhibition: 1−(% PhosSample/% Phos0% Inhibition Ctl)*100
Fl=Fluorescence Intensity
C100%=Average Coumarin emission signal of the 100% Phos. Control
C0%=Average Coumarin emission signal of the 0% Phos. Control
F100%=Average Fluorescein emission signal of the 100% Phos. Control
F0%=Average Fluorescein emission signal of the 0% Phos. Control
SelectScreen® Kinase Profiling Service uses XLfit from IDBS.

MNK1, sequence (Q9BUB5 other isoform, or with tags, fused parts or gaps): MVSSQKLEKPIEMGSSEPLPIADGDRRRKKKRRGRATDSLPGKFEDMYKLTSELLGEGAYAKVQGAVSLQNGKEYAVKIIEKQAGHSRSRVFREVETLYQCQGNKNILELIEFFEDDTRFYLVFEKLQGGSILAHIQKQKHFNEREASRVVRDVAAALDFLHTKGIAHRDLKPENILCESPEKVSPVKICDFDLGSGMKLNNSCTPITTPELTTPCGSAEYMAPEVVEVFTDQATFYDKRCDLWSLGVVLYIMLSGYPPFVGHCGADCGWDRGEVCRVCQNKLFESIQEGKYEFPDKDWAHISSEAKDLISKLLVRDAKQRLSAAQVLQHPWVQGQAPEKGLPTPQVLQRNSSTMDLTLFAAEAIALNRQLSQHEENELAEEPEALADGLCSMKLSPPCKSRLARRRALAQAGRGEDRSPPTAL
MNK2a, sequence (Q9HBH9 whole entry): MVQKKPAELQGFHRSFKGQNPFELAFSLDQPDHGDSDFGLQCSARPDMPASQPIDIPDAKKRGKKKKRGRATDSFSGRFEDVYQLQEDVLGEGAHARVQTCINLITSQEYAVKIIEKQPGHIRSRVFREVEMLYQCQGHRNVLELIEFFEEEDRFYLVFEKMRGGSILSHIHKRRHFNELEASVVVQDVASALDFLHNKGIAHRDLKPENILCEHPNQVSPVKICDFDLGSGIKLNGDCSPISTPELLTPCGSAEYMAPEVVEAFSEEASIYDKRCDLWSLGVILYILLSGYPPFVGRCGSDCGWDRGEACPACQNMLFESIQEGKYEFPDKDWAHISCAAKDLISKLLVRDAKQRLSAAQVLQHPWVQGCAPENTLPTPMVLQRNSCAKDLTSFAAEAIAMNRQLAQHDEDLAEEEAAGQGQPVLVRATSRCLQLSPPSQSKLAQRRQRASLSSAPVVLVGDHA

`CS(C)(=O)=Nc1cc(C(F)(F)F)c2c(Nc3ccc(F)cc3OC(CF)CF)ncnc2c1` [Example 1.002]: the IC50 on MNK2a turned out to be 6 nM. Also, on MNK1, the inhibition at 1 µM was 59%. Taken in the same sequence, the figures for `C[C@@H](Oc1cc(F)ccc1Nc1ncnc2cc(N=S(C)(C)=O)cc(Cl)c12)C(F)(F)F` [Example 1.003] were 1 nM and 95%.

On to `O=S1(=Nc2cc(C(F)(F)F)c3c(Nc4ccc(F)cc4OC(CF)CF)ncnc3c2)CCCC1` [Example 1.004], for which the IC50 on MNK2a amounted to 3 nM. The inhibition at 1 µM at MNK1 is 79%.

Turning to `CCS(C)(=O)=Nc1cc(Cl)c2c(Nc3cccnc3O[C@H](C)c3cc(C)no3)ncnc2c1` (stereo partly drawn) [Example 1.005], the IC50 on MNK2a turned out to be 2 nM. Besides, the inhibition at 1 µM on MNK1 came out at 98%. In the case of `CC(CF)Oc1cc(F)ccc1Nc1ncnc2cc(N=S(C)(C)=O)cc(F)c12` (stereo not drawn) [Example 1.006], at MNK2a, the IC50 is 5 nM. The inhibition at 1 µM on MNK1 stood at 96%. `CCOC(Oc1ncccc1Nc1ncnc2cc(N=S(C)(C)=O)cc(C)c12)C(F)(F)F` (stereo not drawn) [Example 1.008]: the concentration for half-maximal inhibition (IC50) at MNK2a is 8 nM. Moreover, the inhibition at 1 µM at MNK1 is 63%. Taken in the same sequence, the figures for `O=S1(=Nc2cc(C(F)(F)F)c3c(Nc4ccc(F)cc4OC(CF)CF)ncnc3c2)CCNCC1` [Example 1.009] were 26 nM and 64%. In the case of `Cc1cc(N=S2(=O)CCCC2)cc2ncnc(Nc3ccc(F)cc3OC(CF)CF)c12` [Example 1.011], the IC50 is 2 nM on MNK2a and 34 nM against MNK1. Regarding `Cc1cc(C(C)Oc2cc(C(N)=O)ccc2Nc2ncnc3cc(N=S(C)(C)=O)cc(C)c23)on1` (stereo not drawn) [Example 1.012], the IC50 on MNK2a was 6 nM. In addition, the inhibition at 1 µM at MNK1 came to 96%. As for `Cc1cc(N=S(C)(C)=O)cc2ncnc(Nc3ccc(C(N)=O)cc3OC(C)C)c12` [Example 1.014], the IC50 on MNK2a came to 5 nM. At MNK1, the inhibition at 1 µM came out at 97%. On the same counts, the results for `Cc1cc(N=S(C)(C)=O)cc2ncnc(Nc3ccc(F)cc3OC(C)CF)c12` (stereo not drawn) [Example 1.015] are 54 nM and 100%. `Cc1cc([C@@H](C)Oc2ncccc2Nc2ncnc3cc(N=S(C)(C)=O)cc(Cl)c23)on1` [Example 1.016]: the IC50 on MNK2a came out at 1 nM; on MNK1, 53 nM. Regarding `CS(C)(=O)=Nc1cc(F)c2c(Nc3ccc(F)cc3OC(CF)CF)ncnc2c1` [Example 1.018], the IC50 at MNK2a stood at 6 nM. Besides, the inhibition at 1 µM on MNK1 worked out at 93%. For `Cc1cc([C@@H](C)Oc2cc(F)ccc2Nc2ncnc3cc(N=S(C)(C)=O)cc(Cl)c23)on1` [Example 1.019], the IC50 amounted to 1 nM at MNK2a and 54 nM at MNK1. Regarding `CC(Oc1cc(F)ccc1Nc1ncnc2cc(N=S(C)(C)=O)cc(F)c12)C(F)(F)F` (stereo not drawn) [Example 1.020], on MNK2a, the half-inhibitory concentration (IC50) came out at 7 nM. Moreover, the inhibition at 1 µM on MNK1 was determined as 80%. On the same counts, the results for `O=S1(=Nc2cc(C(F)(F)F)c3c(Nc4ccc(F)cc4OC(CF)CF)ncnc3c2)CCOCC1` [Example 1.021] are 1 nM and 52%. Taken in the same sequence, the figures for `CS(C)(=O)=Nc1cc(C2CC2)c2c(Nc3ccc(F)cc3OC(CF)CF)ncnc2c1` [Example 1.022] were 3 nM and 79%. For `CCOC(Oc1cc(F)ccc1Nc1ncnc2cc(N=S(C)(C)=O)cc(C)c12)C(F)(F)F` (stereo not drawn) [Example 1.023], the IC50 on MNK2a was found to be 8 nM. For the same compound, the inhibition at 1 µM at MNK1 was 65%. Regarding `Cc1cc(N=S2(=O)CCCC2)cc2ncnc(Nc3ccc(F)cc3OC(C)C(C)(C)O)c12` (stereo not drawn) [Example 2.001], the IC50 on MNK2a was 5 nM; against MNK1, 228 nM. For the compound `Cc1cc(C(C)Oc2cc(F)ccc2Nc2ncnc3cc(N=S(C)(C)=O)cc(F)c23)on1` (stereo not drawn) [Example 2.002], on MNK2a, the IC50 amounted to 6 nM. Besides, at MNK1, the inhibition at 1 µM came out at 94%. Taken in the same sequence, the figures for `Cc1cc(N=S(C)(C)=O)cc2ncnc(Nc3ccc(F)cc3OC(C)C(C)(C)O)c12` (stereo not drawn) [Example 2.003] were 13 nM and 76%.

For the compound `Cc1cc(N=S2(=O)CCCC2)cc2ncnc(Nc3ccc(F)cc3OCc3ccccc3)c12` [Example 2.004], the 50% inhibitory concentration (IC50) on MNK2a was determined as 6 nM. Also, the inhibition at 1 µM on MNK1 was determined as 75%. On the same counts, the results for `Cc1cc(N=S2(=O)CCCC2)cc2ncnc(Nc3cccnc3OCC3CCOC3)c12` (stereo not drawn) [Example 2.005] are 1 nM and 96%. Consider `Cc1cc(N=S2(=O)CCC2)cc2ncnc(Nc3ccc(F)cc3O[C@H](C)C(F)(F)F)c12` [Example 2.006], for which the IC50 at MNK2a was found to be 2 nM; against MNK1, 71 nM. In the case of `Cc1cc([C@@H](C)Oc2cc(F)ccc2Nc2ncnc3cc(N=S(C)(C)=O)cc(C)c23)on1` [Example 2.008], the concentration for half-maximal inhibition (IC50) on MNK2a was found to be 1 nM; at MNK1, 25 nM. On the same counts, the results for `Cc1cc([C@@H](C)Oc2ncccc2Nc2ncnc3cc(N=S4(=O)CCCC4)cc(C)c23)on1` [Example 2.009] are 1 nM and 49 nM.

As to `Cc1cc(N=S(C)(C)=O)cc2ncnc(Nc3ccc(F)cc3OC(C)C(C)(C)C#N)c12` (stereo not drawn) [Example 2.010], on MNK2a, the IC50 was 11 nM. Further, the inhibition at 1 µM on MNK1 was found to be 76%.

Take `Cc1cc(N=S(C)(C)=O)cc2ncnc(Nc3ccc(F)cc3OC(C)C)c12` [Example 2.011]: on MNK2a, the IC50 worked out at 2 nM. On MNK1, the inhibition at 1 µM worked out at 94%. On the same counts, the results for `Cc1cc([C@@H](C)Oc2cc(F)ccc2Nc2ncnc3cc(N=S4(=O)CCCC4)cc(C)c23)on1` [Example 2.012] are 28 nM and 102%. On the same counts, the results for `Cc1cc([C@@H](C)Oc2cc(F)ccc2Nc2ncnc3cc(N=S4(=O)CCCC4)cc(Cl)c23)on1` [Example 2.014] are 2 nM and 99%. On the same counts, the results for `Cc1cc(N=S(C)(C)=O)cc2ncnc(Nc3cccnc3OC(C)C)c12` [Example 2.017] are 2 nM and 90%. On to `Cc1cc([C@@H](C)Oc2ncccc2Nc2ncnc3cc(N=S(C)(C)=O)cc(C)c23)on1` [Example 2.018], for which the IC50 on MNK2a is 1 nM; at MNK1, 34 nM. Taken in the same sequence, the figures for `Cc1cc(N=S2(=O)CCCC2)cc2ncnc(Nc3ccc(F)cc3O[C@H](C)C(F)(F)F)c12` [Example 2.048] were 2 nM and 40 nM.

Consider `Cc1cc(N=S(C)(C)=O)cc2ncnc(Nc3ccc(F)cc3OC(CF)CF)c12` [Example 3.001], for which the IC50 at MNK2a worked out at 2 nM; on MNK1, 60 nM. Turning to `Cc1cc(N=S(C)(C)=O)cc2ncnc(Nc3ccc(F)cc3OC(C)c3ncco3)c12` (stereo not drawn) [Example 3.002], at MNK2a, the concentration for half-maximal inhibition (IC50) is 8 nM. Besides, the inhibition at 1 µM on MNK1 came out at 80%.

As to `Cc1cc(N=S(C)(C)=O)cc2ncnc(Nc3ccc(F)cc3OC[C@H]3CNC(=O)O3)c12` [Example 3.003], the IC50 at MNK2a amounted to 2 nM. The inhibition at 1 µM on MNK1 is 73%. As for `Cc1cc(N=S(C)(C)=O)cc2ncnc(Nc3ccc(F)cc3OCC3CCCCO3)c12` (stereo not drawn) [Example 3.006], the IC50 on MNK2a came to 1 nM. Moreover, the inhibition at 1 µM on MNK1 turned out to be 70%. As for `Cc1cc(N=S(C)(C)=O)cc2ncnc(Nc3ccc(F)cc3OC(C)c3cccnc3)c12` (stereo not drawn) [Example 3.007], the IC50 on MNK2a was 9 nM. The inhibition at 1 µM at MNK1 was 96%. On the same counts, the results for `Cc1cc(N=S(C)(C)=O)cc2ncnc(Nc3ccc(F)cc3OCC3CC3(F)F)c12` (stereo not drawn) [Example 3.008] are 5 nM and 89%. On the same counts, the results for `Cc1cc(COc2cc(F)ccc2Nc2ncnc3cc(N=S(C)(C)=O)cc(C)c23)no1` [Example 3.009] are 7 nM and 95%.

In the case of `CCOC(=O)[C@@H](C)Oc1cc(F)ccc1Nc1ncnc2cc(N=S3(=O)CCCC3)cc(C)c12` [Example 3.012], on MNK2a, the half-inhibitory concentration (IC50) is 23 nM. The inhibition at 1 µM on MNK1 is 100%. Regarding `Cc1cc(N=S(C)(C)=O)cc2ncnc(Nc3ccc(F)cc3O[C@H](C)C(=O)N(C)CCc3ccccc3)c12` [Example 4.037], the inhibition at 1 µM on MNK1 was found to be 45%. The same measure, in the same setting: next, `COC1CCN(C(=O)[C@@H](C)Oc2cc(F)ccc2Nc2ncnc3cc(N=S(C)(C)=O)cc(C)c23)CC1` [Example 4.073]: 70%.
